Test results published in patent US11000033B2, “Ketone or oxime compound, and herbicide” (NISSAN CHEMICAL CORPORATION, priority 2014, dated 2021).

Experiments:
Assay type in all cases: in vivo
rice = experiment: Test Example 4: effect on crop by soil treatment (symbol b); details: for b: directly sowed rice plant, effect grade on crop: 320 g/ha; for b: directly sowed rice plant, effect on crop grade: application herbicide amount 320 g/ha
In short: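 Soil-treatment setup: crop and weed seeds were spot-sown into sterilized diluvial soil, then buried beneath approximately 1.5 cm of it, and the boxes were housed in a 25–30° C. greenhouse.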

transplanted rice plant = experiment: Test Example 1: effect on crop, application before weed generation in submerged conditions (symbol a); details: application herbicide amount 320 g/ha
In short: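 Rice at 2.5 leaf stage transplanted into submerged soil (4 cm depth) sown with three weed species; herbicide applied before weed emergence.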

Alopecurus myosuroides = experiment: Test Example 4: herbicidal effect by soil treatment (symbol J)
In short: (§1)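 Seeds were sown in sterilized diluvial soil, covered with about 1.5 cm of soil, and the soil surface was sprayed with a water-diluted emulsion of the compound at a predetermined rate. Plants grew in a greenhouse at 25° C. to 30° C.; effects were scored visually 3 weeks after application.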

Galium spurium = experiment: Test Example 4: herbicidal effect by soil treatment (symbol Q)
In short: as §1

Avena fatua = experiment: Test Example 4: herbicidal effect by soil treatment (symbol I)
In short: as §1

Chenopodium album = experiment: Test Example 4: herbicidal effect by soil treatment (symbol O)
In short: as §1

beet = experiment: Test Example 5: effect on crop by foliage application, plastic box (symbol f); details: 320 g/ha, 3 weeks after application
In short: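 Seeds were sown in spots in sterilized diluvial soil held in a plastic box 21 cm × 13 cm × 7 cm deep, covered with about 1.5 cm of soil, and grown in a greenhouse at 25° C. to 30° C.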

Monochoria vaginalis = experiment: Test Example 2: herbicidal activity, application during weed generation in submerged conditions (symbol C); details: Table 23; application herbicide amount 320 g/ha; grade 0-5 by criteria of Test Example 1
In short: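 Alluvial soil in pots was flooded to a 4 cm water depth and sown with a mix of the three weed species, then grown in a greenhouse at 25° C. to 30° C. At the one- to two-leaf stage, an emulsifiable formulation diluted in water to a set dose was applied to the water surface. Effects were scored visually 3 weeks later.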

Setaria viridis = experiment: Test Example 5: herbicidal effect by foliage application, plastic box (symbol G); details: 320 g/ha, 3 weeks after application
In short: (§2)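 Post-emergence spray; diluvial soil (sterilized), ~1.5 cm seed cover; greenhouse 25–30° C; 14-day-old plants; water-diluted emulsion at predetermined dose; visual score at 3 wk post-treatment.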

Leptochloa chinensis = experiment: Test Example 3: herbicidal effect by foliage application, Wagner pot (symbol D); details: application herbicide amount 320 g/ha
In short: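 Weeds and rice were sown in alluvial soil under 0.1–0.5 cm of standing water and grown for 14 days in a 25–30 °C greenhouse. An emulsion of the compound, diluted in water to a set dose, was sprayed evenly onto the foliage. Effect was scored against fixed criteria 3 weeks after treatment.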

Digitaria ciliaris = experiment: Test Example 5: herbicidal effect by foliage application, plastic box (symbol F); details: 320 g/ha, 3 weeks after application
In short: as §2

[1] = application herbicide amount 320 g/ha

| Structure (SMILES) | b: directly sowed rice plant, effect grade on crop (rice) | Effect grade on crop, a: transplanted rice plant (transplanted rice plant) | J: Alopecurus myosuroides, herbicidal effect grade (Alopecurus myosuroides; 320 g/ha) | Q: Galium spurium, herbicidal effect grade (Galium spurium; 320 g/ha) | I: Avena fatua, herbicidal effect grade (Avena fatua; 320 g/ha) | O: Chenopodium album, herbicidal effect grade (Chenopodium album; 320 g/ha) | f: beet, effect on crop grade (beet) | Herbicidal effect grade, C: Monochoria vaginalis (Monochoria vaginalis) | G: Setaria viridis, herbicidal effect grade (Setaria viridis) | herbicidal effect on D (Leptochloa chinensis), grade 0-5 (Leptochloa chinensis) | F: Digitaria ciliaris, herbicidal effect grade (Digitaria ciliaris) | b: directly sowed rice plant, effect on crop grade (rice) | J: Alopecurus myosuroides, herbicidal effect grade (Alopecurus myosuroides; [1]) | Q: Galium spurium, herbicidal effect grade (Galium spurium; [1]) | I: Avena fatua, herbicidal effect grade (Avena fatua; [1]) | O: Chenopodium album, herbicidal effect grade (Chenopodium album; [1]) |
| --- | --- | --- | --- | --- | --- | --- | --- | --- | --- | --- | --- | --- | --- | --- | --- | --- |
| CON=C(C)CC1CC(OC(=O)c2c(Cl)nn(C)c2Cl)=C(c2c(C)cc(C)cc2C)C1=O (centres unmarked) [1-160] | 5 (Herbicidal ratio of 90% or more (almost completely withered)) | 5 (Herbicidal ratio of 90% or more (almost completely withered)) | 5 (Herbicidal ratio of 90% or more (almost completely withered)) | 0 (Herbicidal ratio of 5% or lower (almost no effect)) | 0 (Herbicidal ratio of 5% or lower (almost no effect)) | 0 (Herbicidal ratio of 5% or lower (almost no effect)) | 5 (Herbicidal ratio of 90% or more (almost completely withered)) | 4 (Herbicidal ratio of 70% or higher and lower than 90%) | 5 (Herbicidal ratio of 90% or more (almost completely withered)) | 5 (Herbicidal ratio of 90% or more (almost completely withered)) | 5 (Herbicidal ratio of 90% or more (almost completely withered)) | – | – | – | – | – |
| CON=C(C)CC1CC(OC(=O)c2ccc(S(C)(=O)=O)c(C(=O)OC)c2Cl)=C(c2c(C)cc(C)cc2C)C1=O (centres unmarked) [1-162] | 5 (Herbicidal ratio of 90% or more (almost completely withered)) | 5 (Herbicidal ratio of 90% or more (almost completely withered)) | 5 (Herbicidal ratio of 90% or more (almost completely withered)) | 0 (Herbicidal ratio of 5% or lower (almost no effect)) | 3 (Herbicidal ratio of 40% or higher and lower than 70%) | 0 (Herbicidal ratio of 5% or lower (almost no effect)) | 3 (Herbicidal ratio of 40% or higher and lower than 70%) | 2 (Herbicidal ratio of 20% or higher and lower than 40%) | 5 (Herbicidal ratio of 90% or more (almost completely withered)) | 5 (Herbicidal ratio of 90% or more (almost completely withered)) | 5 (Herbicidal ratio of 90% or more (almost completely withered)) | – | – | – | – | – |
| CON=C(C)CC1CC(OC(=O)C(C)Oc2ccc(Oc3ccc(Cl)cc3Cl)cc2)=C(c2c(C)cc(C)cc2C)C1=O (centres unmarked) [1-163] | 5 (Herbicidal ratio of 90% or more (almost completely withered)) | 5 (Herbicidal ratio of 90% or more (almost completely withered)) | 5 (Herbicidal ratio of 90% or more (almost completely withered)) | 0 (Herbicidal ratio of 5% or lower (almost no effect)) | 3 (Herbicidal ratio of 40% or higher and lower than 70%) | 0 (Herbicidal ratio of 5% or lower (almost no effect)) | 4 (Herbicidal ratio of 70% or higher and lower than 90%) | 3 (Herbicidal ratio of 40% or higher and lower than 70%) | 5 (Herbicidal ratio of 90% or more (almost completely withered)) | 5 (Herbicidal ratio of 90% or more (almost completely withered)) | 5 (Herbicidal ratio of 90% or more (almost completely withered)) | – | – | – | – | – |
| COCC(=O)CC1CC(O)=C(c2c(C)cc(C)cc2C)C1=O (centres unmarked) [2-007] | – | 4 (Herbicidal ratio of 70% or higher and lower than 90%) | – | – | – | – | 0 (Herbicidal ratio of 5% or lower (almost no effect)) | 0 (Herbicidal ratio of 5% or lower (almost no effect)) | 0 (Herbicidal ratio of 5% or lower (almost no effect)) | 5 (Herbicidal ratio of 90% or more (almost completely withered)) | 1 (Herbicidal ratio of 5% or higher and lower than 20%) | 5 (Herbicidal ratio of 90% or more (almost completely withered)) | 3 (Herbicidal ratio of 40% or higher and lower than 70%) | 0 (Herbicidal ratio of 5% or lower (almost no effect)) | 0 (Herbicidal ratio of 5% or lower (almost no effect)) | 0 (Herbicidal ratio of 5% or lower (almost no effect)) |
| CCOC(=O)C(C(=O)c1ccccc1)C1CC(O)=C(c2c(C)cc(C)cc2C)C1=O (centres unmarked) [2-008] | – | 0 (Herbicidal ratio of 5% or lower (almost no effect)) | – | – | – | – | 0 (Herbicidal ratio of 5% or lower (almost no effect)) | 0 (Herbicidal ratio of 5% or lower (almost no effect)) | 3 (Herbicidal ratio of 40% or higher and lower than 70%) | 0 (Herbicidal ratio of 5% or lower (almost no effect)) | 2 (Herbicidal ratio of 20% or higher and lower than 40%) | 0 (Herbicidal ratio of 5% or lower (almost no effect)) | 0 (Herbicidal ratio of 5% or lower (almost no effect)) | 0 (Herbicidal ratio of 5% or lower (almost no effect)) | 0 (Herbicidal ratio of 5% or lower (almost no effect)) | 0 (Herbicidal ratio of 5% or lower (almost no effect)) |
| CCOC(=O)C(C(=O)C(C)C)C1CC(O)=C(c2c(C)cc(C)cc2C)C1=O (centres unmarked) [2-009] | – | 0 (Herbicidal ratio of 5% or lower (almost no effect)) | – | – | – | – | 0 (Herbicidal ratio of 5% or lower (almost no effect)) | 0 (Herbicidal ratio of 5% or lower (almost no effect)) | 0 (Herbicidal ratio of 5% or lower (almost no effect)) | 0 (Herbicidal ratio of 5% or lower (almost no effect)) | 0 (Herbicidal ratio of 5% or lower (almost no effect)) | 5 (Herbicidal ratio of 90% or more (almost completely withered)) | 0 (Herbicidal ratio of 5% or lower (almost no effect)) | 0 (Herbicidal ratio of 5% or lower (almost no effect)) | 0 (Herbicidal ratio of 5% or lower (almost no effect)) | 0 (Herbicidal ratio of 5% or lower (almost no effect)) |
| CCOC(=O)C(C(=O)C(F)(F)F)C1CC(O)=C(c2c(C)cc(C)cc2C)C1=O (centres unmarked) [2-010] | – | 0 (Herbicidal ratio of 5% or lower (almost no effect)) | – | – | – | – | 0 (Herbicidal ratio of 5% or lower (almost no effect)) | 0 (Herbicidal ratio of 5% or lower (almost no effect)) | 0 (Herbicidal ratio of 5% or lower (almost no effect)) | 0 (Herbicidal ratio of 5% or lower (almost no effect)) | 0 (Herbicidal ratio of 5% or lower (almost no effect)) | 0 (Herbicidal ratio of 5% or lower (almost no effect)) | 0 (Herbicidal ratio of 5% or lower (almost no effect)) | 0 (Herbicidal ratio of 5% or lower (almost no effect)) | 0 (Herbicidal ratio of 5% or lower (almost no effect)) | 0 (Herbicidal ratio of 5% or lower (almost no effect)) |
